Measured values: the supplement of paper PMC11061612

Legend:
[1] = test system: D-283MED (Other Solid Carcinomas); test: Bliss excess, mean over the matrix (fraction); higher = more synergy
Method in brief: (§1)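 Bliss excess equals the observed combination effect minus the expected value EA + EB − EA·EB, where EA and EB are the effects of each agent alone. Combination Emax is the second-highest inhibition within the matrix. Inhibition was scaled from CellTiter-Glo 2.0 luminescence, with 0 set by vehicle wells and 1 by blank wells, after 72 hours of two-drug dosing of cells plated in 1536-well plates.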

[2] = test system: ETK-1 (Biliary Tract Carcinoma); test: as above
Method in brief: as §1

EW-22 (Ewing's Sarcoma) = test: as above
Method in brief: as §1

[3] = test system: GDM-1 (Acute Myeloid Leukemia); test: as above
Method in brief: as §1

HCC38 (Breast Carcinoma) = test: as above
Method in brief: as §1

HuO9 (Osteosarcoma) = test: as above
Method in brief: as §1

[4] = test system: MES-SA (Other Solid Carcinomas); test: as above
Method in brief: as §1

[5] = test system: NCI-H1688 (Small Cell Lung Carcinoma); test: as above
Method in brief: as §1

[6] = test system: NOMO-1 (Acute Myeloid Leukemia); test: as above
Method in brief: as §1

[7] = test system: RCC10RGB (Kidney Carcinoma); test: as above
Method in brief: as §1

[8] = test system: SKN-3 (Head and Neck Carcinoma); test: as above
Method in brief: as §1

[9] = test system: SW48 (Colorectal Carcinoma); test: as above
Method in brief: as §1

[10] = test system: SW948 (Colorectal Carcinoma); test: as above
Method in brief: as §1

[11] = test system: U-118-MG (Low Grade Glioma); test: as above
Method in brief: as §1

[12] = test system: 647-V (Bladder Carcinoma); test: combination Emax (second highest fraction inhibited in the dose matrix, 72 h); higher = more inhibition; extreme values may be limits of the assay
Method in brief: as §1

[13] = test system: HCC1143 (Breast Carcinoma); test: as above
Method in brief: as §1

[14] = test system: MES-SA (Other Solid Carcinomas); test: as above
Method in brief: as §1

MSTO-211H (Mesothelioma) = test: as above
Method in brief: as §1

[15] = test system: SLVL (B-Cell Non-Hodgkin's Lymphoma); test: as above
Method in brief: as §1

[16] = test system: SNG-M (Endometrial Carcinoma); test: as above
Method in brief: as §1

| SMILES | Bliss excess [1] | Bliss excess [2] | Bliss excess (EW-22 (Ewing's Sarcoma)) | Bliss excess [3] | Bliss excess (HCC38 (Breast Carcinoma)) | Bliss excess (HuO9 (Osteosarcoma)) | Bliss excess [4] | Bliss excess [5] | Bliss excess [6] | Bliss excess [7] | Bliss excess [8] | Bliss excess [9] | Bliss excess [10] | Bliss excess [11] | combination Emax [12] | combination Emax [13] | combination Emax [14] | combination Emax (MSTO-211H (Mesothelioma)) | combination Emax [15] | combination Emax [16] |
| --- | --- | --- | --- | --- | --- | --- | --- | --- | --- | --- | --- | --- | --- | --- | --- | --- | --- | --- | --- | --- |
| Cn1cnc2c(F)c(Nc3ccc(Br)cc3Cl)c(C(=O)NOCCO)cc21 [Selumetinib] + CCN(CCO)CCCOc1ccc2c(Nc3cc(CC(=O)Nc4cccc(F)c4)[nH]n3)ncnc2c1 [AZD2811] (first compound max 10 µM, 7x7, partner max 1 µM) | -0.0022 | -0.0222 | -0.0426 | -0.0345 | -0.0748 | -0.0201 | -0.0248 | -0.0377 | 0.0333 | -0.0658 | -0.0166 | -0.0168 | 0.0022 | -0.027 | 0.394 | 0.409 | 0.405 | 0.318 | 0.639 | 0.261 |
| Cn1cnc2c(F)c(Nc3ccc(Br)cc3Cl)c(C(=O)NOCCO)cc21 [Selumetinib] + C[C@@H]1COCCN1C2=NC(=NC(=C2)C3(CC3)[S@](=N)(=O)C)C4=C5C=CNC5=NC=C4 [AZD6738] (first compound max 10 µM, 7x7, partner max 10 µM) | -0.0564 | -0.036 | -0.028 | 0.0409 | -0.0706 | 0.0042 | 0.0021 | -0.0217 | -0.0299 | 0.119 | 0.0257 | -0.017 | -0.0114 | 0.0263 | 0.757 | 0.766 | 0.601 | 0.396 | 0.671 | 0.866 |
| CC(=O)Nc1cccc(-n2c(=O)n(C3CC3)c(=O)c3c(Nc4ccc(I)cc4F)n(C)c(=O)c(C)c32)c1 [Trametinib] + Cc1nc(-c2cn3c(n2)-c2ccc(-c4cnn(C(C)(C)C(N)=O)c4)cc2OCC3)n(C(C)C)n1 [Taselisib] (first compound max 1 µM, 7x7, partner max 10 µM) | 0.119 | 0.134 | -0.0042 | 0.0571 | 0.0219 | 0.0587 | 0.062 | 0.127 | 0.0306 | -0.0186 | 0.11 | 0.178 | 0.0126 | -0.0083 | 0.456 | 0.763 | 0.825 | 0.854 | 0.478 | 0.871 |
| CC1(C)CCC(CN2CCN(c3ccc(C(=O)NS(=O)(=O)c4ccc(NCC5CCOCC5)c([N+](=O)[O-])c4)c(Oc4cnc5[nH]ccc5c4)c3)CC2)=C(c2ccc(Cl)cc2)C1 [Venetoclax] + C1CN(CCC1(C(=O)N[C@@H](CCO)C2=CC=C(C=C2)Cl)N)C3=NC=NC4=C3C=CN4 [Capivasertib] (first compound max 1 µM, 7x7, partner max 3 µM) | -0.0218 | -0.0619 | 0.0137 | -0.0325 | -0.0177 | -0.0237 | -0.0597 | -0.0065 | -0.0342 | -0.0402 | -0.033 | -0.0679 | -0.0718 | -0.0494 | 0.218 | 0.239 | 0.355 | 0.251 | 0.786 | 0.416 |
| CC1(C)CCC(CN2CCN(c3ccc(C(=O)NS(=O)(=O)c4ccc(NCC5CCOCC5)c([N+](=O)[O-])c4)c(Oc4cnc5[nH]ccc5c4)c3)CC2)=C(c2ccc(Cl)cc2)C1 [Venetoclax] + C=CCn1c(=O)c2cnc(Nc3ccc(N4CCN(C)CC4)cc3)nc2n1-c1cccc(C(C)(C)O)n1 [AZD1775] (first compound max 1 µM, partner max 1 µM) | 0.0257 | -0.0661 | 0.139 | 0.132 | 0.0136 | 0.0227 | -0.0606 | -0.0067 | 0.0689 | -0.0374 | -0.0949 | 0.0294 | -0.0113 | -0.0704 | 0.612 | 0.548 | 0.787 | 0.592 | 0.978 | 0.729 |
| CC1(C)CCC(CN2CCN(c3ccc(C(=O)NS(=O)(=O)c4ccc(NCC5CCOCC5)c([N+](=O)[O-])c4)c(Oc4cnc5[nH]ccc5c4)c3)CC2)=C(c2ccc(Cl)cc2)C1 [Venetoclax] + CCN(CCO)CCCOc1ccc2c(Nc3cc(CC(=O)Nc4cccc(F)c4)[nH]n3)ncnc2c1 [AZD2811] (first compound max 1 µM, 7x7, partner max 1 µM) | 0.0579 | -0.0793 | 0.0583 | 0.0676 | 0.0347 | 0.0203 | 0.0315 | 0.0436 | 0.182 | -0.066 | -0.0167 | -0.0071 | -0.0229 | -0.0032 | 0.245 | 0.318 | 0.408 | 0.394 | 0.901 | 0.278 |
